# In patent publication US5145855A, “6- and 7-deoxyforskolin and derivatives thereof” (Hoechst Roussel Pharmaceuticals, Inc., priority 1991, dated 1992):
# Tested on: isolated guinea pig left atrium
# Test: electrically-driven guinea pig left atrium contractile force assay (positive inotropic effect)
# Conditions: for Ionotropic Activity (% Change of Contractile Force): at the concentration of the same line (extrapolated ED50: A 0.04, B 0.073 μg/ml)
# Method: The forskolin derivatives of the present invention are useful in the treatment of cardiac failure by virtue of their ability to elicit a positive inotropic effect as determined in the isolated guinea pig atria contractile force assay. The electrically-driven guinea pig left atrium assay is performed as follows: Male guinea pigs weighing 200-300 grams are stunned with a blow to the back of the head. The heart is rapidly removed and placed in a petri dish containing Krebs solution. The ventricle is separated from the atria, the atria are sectioned in the right and left atria, and double-O silk ligatures are tied to the apex of the left atrium. The atrium is fixed to a pair of platinum plate electrodes and suspended in a 20-ml tissue bath containing Kreb's solution aerated with 95% oxygen-5% carbon dioxide at 37° C. One end of the atrium is fixed to a hook in the electrode and the other end is connected to a Grass FTO3 force displacement transducer. Resting tension and stabilization time are the same as described above. The atrium is stimulated at 3 Hz, 0.5 msec duration at supramaximal voltage (constant current) via a Grass S88 stimulator and constant current unit. Force of contraction is continuously displaced on a Gould recorder. Test drug is prepared and is added to the tissue baths. Change in contractile force from baseline is determined for each concentration, and the change in contractile force (g) is plotted against accumulated drug concentration (μg/ml) The activity of the test drug, i.e., the increase in contractile force (g) from the stabilized force expressed as the percentage change at a given concentration is determined graphically, as is the ED50 -value, i.e., the extrapolated dose (μg/ml) which increases the contractile force by 50% over the stabilized rate.
SMILES,Ionotropic Activity (% Change of Contractile Force) [%],"Extrapolated ED50 value (concentration which increases the contractile force by 50%) (isolated left atrium, stimulated at 3 Hz, 37° C., Krebs solution) [µg/mL]","EC50 (Cavia porcellus, isolated left atrium, stimulated at 3 Hz, 37° C., Krebs solution, read-out: Extrapolated ED50 value (concentration which increases the contractile force by 50%)) [µg/mL]"
"C=CC1(C)CC(=O)C2(O)C(C)(O1)C(Oc1ncccn1)CC1C(C)(C)CCC(O)C12C.Cl (stereo not shown) [A, 6-Deoxy-7-desacetyl-7-(pyrimidin-2-yl)forskolin hydrochloride]",50,0.04,
"C=C[C@@]1(C)CC(=O)[C@]2(O)[C@@]3(C)[C@@H](O)CCC(C)(C)[C@@H]3[C@H](O)[C@H](OC(C)=O)[C@@]2(C)O1 [B, Forskolin]",50,,0.073
